The assay concerns the target T1, Human TRPC6 (Homo sapiens, UniProt Q9Y210).
T1 construct: expressed in transfected cells
T1 sequence (Q9Y210 1-931): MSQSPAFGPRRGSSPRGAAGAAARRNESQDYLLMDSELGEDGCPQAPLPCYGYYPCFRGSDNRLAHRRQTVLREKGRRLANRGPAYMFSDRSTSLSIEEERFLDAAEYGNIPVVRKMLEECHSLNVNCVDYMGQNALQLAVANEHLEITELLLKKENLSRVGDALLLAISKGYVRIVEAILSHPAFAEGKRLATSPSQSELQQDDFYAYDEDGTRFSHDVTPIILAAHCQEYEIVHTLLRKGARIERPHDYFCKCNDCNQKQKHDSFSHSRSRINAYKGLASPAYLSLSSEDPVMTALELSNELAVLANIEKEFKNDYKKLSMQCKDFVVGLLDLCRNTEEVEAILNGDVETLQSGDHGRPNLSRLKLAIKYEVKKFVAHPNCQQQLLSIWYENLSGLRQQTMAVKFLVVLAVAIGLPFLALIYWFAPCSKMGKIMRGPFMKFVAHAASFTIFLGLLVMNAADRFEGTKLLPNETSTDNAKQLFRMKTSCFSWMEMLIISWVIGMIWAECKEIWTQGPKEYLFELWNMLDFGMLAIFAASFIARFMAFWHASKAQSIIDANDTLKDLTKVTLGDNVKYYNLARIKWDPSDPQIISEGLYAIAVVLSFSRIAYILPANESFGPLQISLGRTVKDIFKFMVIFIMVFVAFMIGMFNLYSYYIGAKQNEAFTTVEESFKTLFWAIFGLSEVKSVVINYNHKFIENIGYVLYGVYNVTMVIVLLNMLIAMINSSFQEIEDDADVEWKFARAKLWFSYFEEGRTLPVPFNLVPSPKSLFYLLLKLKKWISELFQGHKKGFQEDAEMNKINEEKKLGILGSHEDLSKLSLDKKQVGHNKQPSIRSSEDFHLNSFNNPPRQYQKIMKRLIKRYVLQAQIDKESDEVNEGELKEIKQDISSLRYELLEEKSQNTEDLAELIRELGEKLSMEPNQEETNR
Nature of the assay: Evaluation of TRPC6 channel inhibitory activity (1), FLIPR Calcium 5 Assay Kit, OAG stimulation (Compound Nos. 1-1293). Format: cell-based. The following applies: Human TRPC6 stably-expressing cells, OAG 30 μM, FLIPR Calcium 5 Assay Kit; read-out: Inhibitory activity (pIC50 class) (converted). Summed up:
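TRPC6 (human) stable cells, 24 h culture; Ca5 no-wash dye + probenecid 30 min; cpd 20 min; OAG 30 μM final; ΔF (pre-cpd min to post-OAG max); 0%/100% = no cpd / no cpd + no OAG; 4PL → pIC50, binned +/++/+++.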
In the case of `Cn1nc(-c2ccc(Cl)cc2)cc1Oc1cc(C#N)ccc1-c1ccc([C@@H](O)CN)cn1` [compound 377, 4-[5-[(1R)-2-amino-1-hydroxyethyl]pyridin-2-yl]-3-[5-(4-chlorophenyl)-2-methylpyrazol-3-yl]oxybenzonitrile], the IC50 is 10 to 1000 nM.

Take `Cn1nc(C2CC2)cc1Oc1cc(C#N)ccc1-n1cc2c(n1)CCNC2` [compound 776, 3-(5-cyclopropyl-2-methylpyrazol-3-yl)oxy-4-(4,5,6,7-tetrahydropyrazolo[4,3-c]pyridin-2-yl)benzonitrile]: the IC50 is over 1000 nM.

With `Cc1nc(N2CCOCC2)sc1C(=O)c1cc(C#N)ccc1-c1ncc(CN)cn1` [Compound No. 1064, 4-[5-(Aminomethyl)pyrimidin-2-yl]-3-(4-methyl-2-morpholin-4-yl-1,3-thiazole-5-carbonyl)benzonitrile], the IC50 is 10 to 1000 nM.

Consider `Cc1nc(Oc2cc(C#N)ccc2-n2cc([C@H](O)CN)cn2)cc(-c2ccccc2)n1` [Compound 171, 4-[4-[(1S)-2-amino-1-hydroxyethyl]pyrazol-1-yl]-3-(2-methyl-6-phenylpyrimidin-4-yl)oxybenzonitrile], for which the IC50 was under 10 nM.

As to `Cn1nc(-c2ccccc2)cc1Oc1cc(C#N)ncc1-c1ccc(CN)cn1` [compound 1278, 5-[5-(aminomethyl)pyridin-2-yl]-4-(2-methyl-5-phenylpyrazol-3-yl)oxypyridine-2-carbonitrile], the IC50 was 10 to 1000 nM.

Consider `Cc1cc(Oc2cc(C#N)ccc2-c2ncc(CCN3CCOCC3)cn2)cc(N2CCOCC2)n1` [compound 419, 3-(2-methyl-6-morpholin-4-ylpyridin-4-yl)oxy-4-[5-(2-morpholin-4-ylethyl)pyrimidin-2-yl]benzonitrile], for which the IC50 was over 1000 nM.

With `CC(C)(C)OCCOc1cc(Oc2cc(C#N)ccc2-c2ccc(CCN)cc2)cnn1` [Compound 127, 4-[4-(2-aminoethyl)phenyl]-3-[6-[2-[(2-methylpropan-2-yl)oxy]ethoxy]pyridazin-4-yl]oxybenzonitrile], the IC50 is over 1000 nM.

Take `Cc1nc(Oc2cc(C#N)ccc2-c2nc(C)c(C(O)CN)s2)cc(-c2ccccc2)n1` (centres unmarked) [Compound 71, 4-[5-(2-amino-1-hydroxyethyl)-4-methyl-1,3-thiazol-2-yl]-3-(2-methyl-6-phenylpyrimidin-4-yl)oxybenzonitrile]: the IC50 is 10 to 1000 nM.

On to `Cn1nc(C(C)(C)C)cc1C(O)c1cc(C#N)ccc1-c1ncc(CN)cn1` (centres unmarked) [compound 1234, 4-[5-(aminomethyl)pyrimidin-2-yl]-3-[(5-tert-butyl-2-methylpyrazol-3-yl)-hydroxymethyl]benzonitrile], for which the IC50 was under 10 nM.

For `Cc1nc(Oc2cc(C#N)ccc2-n2cc([C@H](O)CN)cn2)cc(-c2ccccc2Cl)n1` [compound 343, 4-[4-[(1S)-2-amino-1-hydroxyethyl]pyrazol-1-yl]-3-[6-(2-chlorophenyl)-2-methylpyrimidin-4-yl]oxybenzonitrile], the IC50 is 10 to 1000 nM.

In the case of `Cn1nc(-c2ccccc2)cc1Oc1cc(C#N)ccc1-n1cc(N2CCCNCC2=O)cn1` [Compound 218, 3-(2-methyl-5-phenylpyrazol-3-yl)oxy-4-[4-(2-oxo-1,4-diazepan-1-yl)pyrazol-1-yl]benzonitrile], the IC50 was over 1000 nM.

As to `Cc1nc(Oc2cc(C#N)ccc2-c2ncc(CCN)cn2)cc(N2CCC2)n1` [compound 853, 4-[5-(2-aminoethyl)pyrimidin-2-yl]-3-[6-(azetidin-1-yl)-2-methylpyrimidin-4-yl]oxybenzonitrile], the IC50 was 10 to 1000 nM.

For the molecule `Cc1nc(Oc2cc(F)ccc2-c2ncc(CN)cn2)cc(N2CCOCC2)n1` [compound 1002, [2-[4-fluoro-2-(2-methyl-6-morpholin-4-ylpyrimidin-4-yl)oxyphenyl]pyrimidin-5-yl]methanamine], the IC50 is over 1000 nM.

With `N#Cc1ccc(-c2ccc(CCN)nc2)c(Oc2cc(N3CCOCC3)nc(C(F)(F)F)n2)c1` [Compound 147, 4-[6-(2-aminoethyl)pyridin-3-yl]-3-[6-morpholin-4-yl-2-(trifluoromethyl)pyrimidin-4-yl]oxybenzonitrile], the IC50 is 10 to 1000 nM.

As to `N#Cc1ccc(-c2ncc(CN)cn2)c(Oc2ccc(N3C4CCC3CC4)nc2)c1` [compound 753, 4-[5-(aminomethyl)pyrimidin-2-yl]-3-[6-(7-azabicyclo[2.2.1]heptan-7-yl)pyridin-3-yl]oxybenzonitrile], the IC50 was over 1000 nM.

As to `N#Cc1ccc(-c2ncc(CCN)cn2)c(Oc2nnc(N3CCCCC3)s2)c1` [compound 704, 4-[5-(2-aminoethyl)pyrimidin-2-yl]-3-[(5-piperidin-1-yl-1,3,4-thiadiazol-2-yl)oxy]benzonitrile], the IC50 was under 10 nM.

Consider `COCCOc1cc(Oc2cc(C#N)ccc2-c2ncc(CN)cn2)nc(C)n1` [compound 843, 4-[5-(aminomethyl)pyrimidin-2-yl]-3-[6-(2-methoxyethoxy)-2-methylpyrimidin-4-yl]oxybenzonitrile], for which the IC50 was over 1000 nM.

In the case of `CCN(CC)c1nnc(Oc2cc(C#N)ccc2-c2ncc(CCN)cn2)s1` [compound 724, 4-[5-(2-aminoethyl)pyrimidin-2-yl]-3-[[5-(diethylamino)-1,3,4-thiadiazol-2-yl]oxy]benzonitrile], the IC50 is under 10 nM.

For the molecule `CC(C)c1nc(Oc2cc(C#N)ccc2-c2ncc(CN)cn2)n(C)n1` [compound 814, 4-[5-(aminomethyl)pyrimidin-2-yl]-3-[(2-methyl-5-propan-2-yl-1,2,4-triazol-3-yl)oxy]benzonitrile], the IC50 is over 1000 nM.

In the case of `N#Cc1ccc(-c2ncc(CCN)cn2)c(Sc2sc(-c3ccccc3)nc2C#N)c1` [compound 1274, 5-[2-[5-(2-aminoethyl)pyrimidin-2-yl]-5-cyanophenyl]sulfanyl-2-phenyl-1,3-thiazole-4-carbonitrile], the IC50 is 10 to 1000 nM.

For the molecule `Cn1nc(C2CC2)cc1Oc1cc(C#N)ccc1-c1ccc(C(N)C(N)=O)cn1` (centres unmarked) [compound 504, 2-amino-2-[6-[4-cyano-2-(5-cyclopropyl-2-methylpyrazol-3-yl)oxyphenyl]pyridin-3-yl]acetamide], the IC50 was over 1000 nM.

Take `Cc1nc(C(F)F)cn1Cc1cc(C#N)ccc1-c1ncc(CCN)cn1` [compound 1176, 4-[5-(2-aminoethyl)pyrimidin-2-yl]-3-[[4-(difluoromethyl)-2-methylimidazol-1-yl]methyl]benzonitrile]: the IC50 is 10 to 1000 nM.

As for `N#Cc1ccc(-c2ccc(CN)cn2)c(C(=O)c2nnc(N3CCOCC3)s2)c1` [compound 1093, 4-[5-(aminomethyl)pyridin-2-yl]-3-(5-morpholin-4-yl-1,3,4-thiadiazole-2-carbonyl)benzonitrile], the IC50 is over 1000 nM.

In the case of `Cc1cc(Oc2cc(C#N)ccc2-c2ccc([C@@H](O)CN)cn2)cc(N2CCOCC2)n1` [compound 517, 4-[5-[(1R)-2-amino-1-hydroxyethyl]pyridin-2-yl]-3-(2-methyl-6-morpholin-4-ylpyridin-4-yl)oxybenzonitrile], the IC50 was under 10 nM.

As for `Cc1cc(Oc2cc(C#N)ccc2-c2ncc(CCN)cn2)cc(N2CCN(C)C(=O)C2)n1` [compound 465, 4-[5-(2-aminoethyl)pyrimidin-2-yl]-3-[2-methyl-6-(4-methyl-3-oxopiperazin-1-yl)pyridin-4-yl]oxybenzonitrile], the IC50 is over 1000 nM.

With `Cc1nc(Oc2cc(C#N)ccc2-n2cc(N3CCCNCC3=O)cn2)cc(C2CCCC2)n1` [Compound 209, 3-(6-cyclopentyl-2-methylpyrimidin-4-yl)oxy-4-[4-(2-oxo-1,4-diazepan-1-yl)pyrazol-1-yl]benzonitrile], the IC50 was over 1000 nM.

Turning to `Cn1nc(C(C)(C)C)cc1Oc1cc(C#N)ccc1-c1ncc([C@H](O)CN)cn1` [compound 406, 4-[5-[(1S)-2-amino-1-hydroxyethyl]pyrimidin-2-yl]-3-(5-tert-butyl-2-methylpyrazol-3-yl)oxybenzonitrile], the IC50 was under 10 nM.

`Cn1nc(-c2cccc(F)c2)cc1Oc1cc(C#N)ccc1-c1ccc(CCN)cn1` [Compound 199, 4-[5-(2-aminoethyl)pyridin-2-yl]-3-[5-(3-fluorophenyl)-2-methylpyrazol-3-yl]oxybenzonitrile]: the IC50 is under 10 nM.

With `N#Cc1ccc(-c2ncc(CCN)cn2)c(C(=O)c2cnn(C3CCC3)c2)c1` [compound 1057, 4-[5-(2-aminoethyl)pyrimidin-2-yl]-3-(1-cyclobutylpyrazole-4-carbonyl)benzonitrile], the IC50 is under 10 nM.

Source of the values: patent US20230167073A1 (Teijin Pharma Limited, priority 2020, published 2023).
